A short description of the series: GHS categories as the set defines them, by LD50: 1 up to 5, 2 up to 50, 3 up to 300, 4 up to 2000, 5 above 2000 mg/kg. The note with it: rat; in vivo; po.

Regarding `CC1OC(OC2CCC(OC3C(O)CC(c4ccc5c(c4O)C(=O)C4=C(C5=O)C5(O)C(=O)CC(C)(OC6CCC(OC7C=CC(=O)C(C)O7)C(C)O6)CC5(O)C=C4)OC3C)OC2C)C=CC1=O` (stereo unspecified), the GHS category worked out at 4.
Regarding `O=C(O)Cc1ccc(OCC(O)CO)c(Cl)c1` (stereo unspecified), the GHS category was 5.
Next, `COc1ccc(CCN(C(=O)CCCSc2nnnn2C)C2CCCCC2)cc1OC`: 4; `CC(=O)NCc1c(I)c(NC(C)=O)c(I)c(C(=O)O)c1I`: 5; `O=C1CCCCCCCCCCOCCCCO1`: 5.
In the case of `Cn1c(=O)n(-c2ccccc2)c2cc(Cl)ccc21` it was 4; in that of `CC(C)COC(=O)Cc1ccccc1`, 5.
The molecule `CN(C(=O)Cl)c1nnc(C(C)(C)C)s1` came in with a GHS category of 4.
For the molecule `C=CC(C)(O)CCCC(C)CCCC(C)CCCC(C)C` (stereo unspecified), the GHS category came to 5.
Molecule `Cc1cc(O)cc(C)c1S(C)(=O)=O` displayed a GHS category of 4.
`CC[C@H](C)C(=O)O[C@H]1C[C@H](O)C=C2C=C[C@H](C)[C@H](CC[C@@H](O)C[C@@H](O)CC(=O)O)[C@H]21` came in with a GHS category of 5.
For `CN1C(=O)COc2cc(C(=O)C=Cc3ccccc3)ccc21`, the GHS category is 5.
Take `OC1CCOC1` (stereo unspecified): the GHS category was determined as 5.
In the case of `CCCC(=O)c1ccc2c(c1)OC(C)C(=O)N2C` (stereo unspecified) it was 5; in that of `CCCCCCCCCCCC(=O)N(CC)CC`, 5.
Take `NS(=O)(=O)c1ccccc1C(F)(F)F`: the GHS category worked out at 4.
For the molecule `CCS(=O)(=O)CCC(=O)NNC(=O)N1Cc2ccccc2Oc2ccc(Cl)cc21`, the GHS category worked out at 5.
Consider `CCCCn1c(C)c(C(=O)NC2CCN(CCc3ccccc3)CC2)c2cc(O)ccc21`, for which the GHS category was 5.
As to `Cc1ccc(OP(=O)(Oc2ccccc2)Oc2ccccc2)cc1`, the GHS category is listed as 5.
`C[N+](C)(C)NCCC(=O)[O-]` yielded a GHS category of 5.
In the case of `COc1cc2nc(N3CCC(N(C)C(=O)c4ccco4)CC3)nc(N)c2cc1OC` it was 4; in that of `C=CC1=C(C(=O)O)N2C(=O)[C@@H](NC(=O)C(=NOCC(=O)O)c3csc(N)n3)[C@H]2SC1`, 5; in that of `CCCCCCCCCCCCCCCC(=O)NCC(=O)O`, 5.
Molecule `CCCCCCCCCCCCCCCC(=O)OCCCCCCCCCCCCCCCC(C)C` had a GHS category of 5.
As to `CC1N=C(c2ccccc2Cl)c2c(ccc(NC(=O)NCCO)c2Br)N(C)C1=O` (stereo unspecified), the GHS category was found to be 5.
Next, `CCOc1ccc(N(CCCC(=O)O)C(=O)c2ccc(Cl)cc2)cc1`: 5.
As to `BrC1CC(Br)CC(Br)CC(Br)CC(Br)CC(Br)C1` (mixture of isomers), the GHS category is given as 5.
Next, `CCCCCCCOCCCCN1CCCCCC1=O`: 5.
With `O=C1c2ccc(N(c3ccc(Cl)cc3)c3ccc(Cl)cc3)cc2C(=O)N1Cc1cccnc1`, the GHS category stood at 5.
`COc1cc(C)c(C(=O)c2c(OC)ccc(Br)c2C)c(OC)c1OC`: the GHS category worked out at 5.
On to `CC(CCC(=O)NCCS(=O)(=O)O)C1CCC2C3C(O)CC4CC(O)CCC4(C)C3CCC12C` (stereo unspecified), for which the GHS category was 5.
As for `CN1C(C(=O)Nc2ccccn2)=C(O)c2sc(O)cc2S1(=O)=O`, the GHS category was found to be 3.
Molecule `NCC1(CC(=O)O)CCCCC1` showed a GHS category of 5.
`CCCC1(C)COC(Cn2cncn2)(c2cc3ccccc3o2)OC1` (stereo unspecified) had a GHS category of 4.
Take `CC(C)=CCC/C(C)=C/CC/C(C)=C/CCC(=O)OC/C=C(\C)CCC=C(C)C`: the GHS category worked out at 5.
As to `CC(C)c1ccc(S(=O)(=O)O)cc1`, the GHS category turned out to be 5.

Source of the values: the CATMoS acute toxicity set (Mansouri et al. 2021).
